Source: patent publication US20200230136A1, “SELECTIVE ADRENORECEPTOR ALPHA2C RECEPTOR ANTAGONISTS ALONE, OR IN COMBINATION WITH CHYMASE INHIBITORS FOR USE IN THE TREATMENT AND/OR PROPHYLAXIS OF PERIPHERAL ARTERY DISEASES (PAD)” (Bayer Aktiengesellschaft, priority 2017, published 2020)

Legend:
Format in all cases: in vivo
[1] = system: full-thickness wounds in STZ-challenged minipigs; assay: Wound healing in streptozotocin (STZ)-challenged minipigs
Procedure: Wounds (twelve 15.15-mm full-thickness wounds) were induced in STZ-challenged minipigs. STZ challenge (160 mg/kg) was performed 14 days before wounding in 15 animals, two out of 15 animals had to be sacrificed due to blood glucose instability. The remaining 13 animals (body weight around 25 kg: 27.92±2.35 kg on the day of STZ dosing, Day 0: 24.35±2.14 kg and Day 17: 23.27±2.24 kg) were randomized to 3 groups:
Group I) placebo: Animal 1, 8, 10 and 13; Group II) 0.6 mg/kg Compound of Ex 8: Animal 2, 7, 11 and 12; Group III) 0.1 mg/kg Compound of Ex. 8: Animal 3, 4, 6, 14 and 15
Oral gavage was done by gelatin capsules containing Compound of Ex. 8 or lactose as placebo (25 kg body weight was assumed for all animals).
Topical treatment was performed using Compound of Ex. 8 in a concentration of 0.06 mg/mL in a Pluronic® gel matrix or as placebo Pluronic® gel at a volume of 1 mL per wound. The whole study was performed in a blinded manner. The 12 wounds per animal were treated according to Table 1 to combine oral treatment with and without topical treatment in this study. Wounds were closed by a sterile reclosable bag system. Animals were treated orally BID for 17 days starting after wounding (Day 0) and topically once daily on Days 0, 2, 5, 8, 11 and 14. On Day 17, wounds were harvested and animals sacrificed.
The primary endpoint of this study was wound size over study time. Wound size was evaluated via photographs and evaluated by photoshop under blinded conditions. Wound size was shown in absolute numbers as well as percent size vs. wound size on Day 0. In addition, re-epithelialization as well as wound contracture were determined The mean of all 12 wounds per animal was compared to Day 0. […] Between Day 5 and Day 11, a differentiation between the animals was observed.

[2] = system: diabetic ZDF fa/fa rats, ligature of the left iliac artery; assay: Effects on ankle-brachial index in ZDF rats (unilateral hindlimb ischemia model)
Procedure: Compound of Ex. 8 induced a 10 to 30% improvement in the perfusion index (FIG. 7). […] Corresponding plasma concentrations were measured between 4 and 47 μg/L.
FIG. 6: Effects of Compound of Ex. 8 on perfusion pressure indices. Shown are baseline value (Od) as well as perfusion pressure indices after ligature of the left iliac artery and 2 weeks of daily treatment (14 d) with Compound of Ex. 8 in diabetic ZDF fa/fa rats (raw data; 10 animals) • Student t-test, Compound of Ex. 8 versus vehicle; ZDF=Zucker diabetic fatty
FIG. 7: Percent change in perfusion pressure indices by Compound of Ex. 8 after 14 days (14 d) of daily treatment compared to baseline values (mean±SEM; 10 animals) • SEM=standard error of mean; ZDF=Zucker diabetic fatty

[3] = system: atherosclerotic ApoE-/- mice, hindlimb ischemia; assay: Effects on running distance in apolipoprotein E knockout mice after hindlimb ischemia
Procedure: To evaluate effects more closely, the percent change in running distance compared to the run-in values (2 week run-in period before ligature) of all animals were analyzed.
FIG. 8: Effects of Compound of Ex. 8 on daily running distance in atherosclerotic ApoE-/- mice before and after induction of bilateral hindlimb ischemia (mean±SEM; 10 to 11 animals) • ApoE-/-=apolipoprotein E knockout; Ctrl.=control; SEM=standard error of mean

[4] = system: ischemic wounds in New Zealand white rabbits; assay: Wound healing in the ischemic rabbit ear model
Procedure: Ischemic wounds (three 7 mm full-thickness dermal punches on the inner surface of both ears) were induced in New Zealand white rabbits. Oral gavage was done through a nasogastric tube or catheter. 20 rabbits were treated with Compound of Ex. 8 (0.3 mg/kg; n=10) or vehicle (10% ethanol, 30% PEG 400, 60% tap water, n=10) through the catheter daily at multiple time points [post-wounding days (POD) 3, 4, 5, 6 and 7]. Wounds were harvested on POD 10. For histologic analysis, one-half of wounds including the surrounding normal skin in rectangular shape was taken. One-half of the wound was frozen for further molecular analysis. Tissues underwent routine processing, paraffin embedding, and sectioning. A 4 μm cross section through the center of each rectangular biopsy was taken. The tissues were stained with hematoxylin and eosin and examined under light microscopy. Several histomorphometric measurements were determined, using a digital image analysis system (NIS-Elements Basic Research; Nikon Instech Co, Kanagawa, Japan) at 2 fold and 10 fold magnification. Each parameter was measured in a blinded manner.
In addition, tissue oxygen tension and blood flow were examined by the OxyLite® system (Oxford Optronix). Oxygen tension and blood flow were measured on POD 3, 7 and 10 in each rabbit. The oxygen tension unit is mmHg and the blood flow unit is blood PUs. The results were presented as ratio of O2-ischemia/O2-non-ischemia, or flow-ischemia/flow-non-ischemia. Analysis was performed by comparison between control and treatment groups on POD 3, 7 and 10.

[5] = 0.6 mg treated wounds vs placebo

In the case of `O=C(c1cnc(N2CC3(COC3)C2)nc1)N1CCC(N2CCc3ccccc3C2)CC1` [Compound of Ex. 8, [4-(3,4-Dihydroisoquinolin-2(1H)-yl)piperidin-1-yl][2-(2-oxa-6-azaspiro[3.3]hept-6-yl)pyrimidin-5-yl]methanone], the “wound size, wounds without topical treatment (Wounds 1 to 6)” value ([1]; 0.1 mg/kg oral BID vs placebo, Day 2 (P=0.011) and Day 5 (P=0.014)) is reported as “significant improvement vs. placebo”, the wound contracture ([1]; 0.1 mg/kg oral BID, Day 2, 5, 8, 11 and 17) is reported as “improvement in wound contracture being significant” and the “course of wound healing (variability)” value ([1]; 0.1 mg/kg oral BID, between Day 5 and Day 11) is reported as “greater heterogeneity”. The “histology: cell proliferation” value [1, 5] was “reduced cell proliferation”, the “histology: collagen III/I ratio” value [1, 5] was “lower collagen III/I ratio” and the “histology: detectable vessels” value [1, 5] was “more detectable vessels”. For the same compound, the “histology: differentiation level of the epidermis” value [1, 5] was “increased differentiation level of the epidermis”, the “histology: inflammation” value [1, 5] was “reduced inflammation” and the “histology: re-epithelialization level” value [1, 5] was “higher re-epithelialization level”. For the same compound, the “histology: structuring of basement membranes defined by laminin detection” value [1, 5] was “increased structuring of basement membranes”, the “histological evaluation of wound healing” value ([1]; 0.6 mg treated wounds vs placebo, wounds harvested Day 17) was “more advanced wound healing” and the “wound size over time, mean of all wounds” value ([1]; 0.6 mg/kg oral BID 17 days vs placebo, all 12 wounds per animal, all days (FIG. 1)) was “significantly improved wound healing”. For the same compound, the “wound size, wounds without topical treatment (Wounds 1 to 6)” value ([1]; 0.6 mg/kg oral BID vs placebo, all values (FIG. 2)) was “significantly better compared to the placebo group”, the wound contracture ([1]; 0.6 mg/kg oral BID, Day 2, 5, 8 and 11) was “improvement in wound contracture being significant” and the “difference in wound size vs placebo, wounds without topical treatment (Wounds 1 to 6)” value ([1]; 0.6 mg/kg oral BID, Day 8) was “about 21.6%”. The re-epithelialization ([1]; 0.6 mg/kg oral BID, Day 17, two animals of the group) was “complete and stable re-epithelialization”, the “speed of wound healing” value ([1]; 0.6 mg/kg oral BID, between Day 5 and Day 11, vs placebo and 0.1 mg/kg groups) was “quicker wound healing compared to the 2 other groups” and the “wound size, wounds without topical treatment (Wounds 1 to 6), dose comparison” value ([1]; 0.6 mg/kg vs 0.1 mg/kg group, Days 8, 11, 14 and 17) was “significantly better compared to the 0.1 mg/kg group”. The perfusion pressure ([2]; 0.3 mg/kg (most effective dose), 14 d daily treatment) was “significant increase in perfusion pressure”, the “muscle function in the ligated limb” value ([2]; 0.1, 0.3 and 1 mg/kg) was “slight tendency toward improved muscle function” and the perfusion indices ([2]; 0.1, 0.3 and 1 mg/kg, 2 weeks of daily treatment (FIG. 6)) was “increase in perfusion indices at all doses”. For the same compound, the “total running distance, percent change vs run-in values” ([3]; 10 μg/ml (FIG. 9)) was “tendency toward an improvement”, the “running distance, area under the curve from Day 0 to Day 28” value ([3]; 30 μg/kg vs placebo) was “significant improvements compared to placebo” and the “running distance, percent change vs run-in values” ([3]; 30 μg/kg, several days during the 4 week observation period (FIG. 10)) was “significant improvement in running distance”. The “running distance, area under the curve from Day 0 to Day 28” value ([3]; 100 μg/kg vs placebo) was “significant improvements compared to placebo”, the “running distance, percent change vs run-in values” ([3]; 100 μg/kg, several days during the 4 week observation period (FIG. 11)) was “significant improvement in running distance” and the running distance ([3]; oral administration of 10, 30 and 100 μg/mL, after induction of hindlimb ischemia (FIG. 8)) was “increase in running distance”. The granulation area ([4]; 0.3 mg/kg oral, POD 3-7, wounds harvested POD 10, P=0.07 vs control) was 133,630+20,208 μm^2, the epithelial gap ([4]; 0.3 mg/kg oral, POD 3-7, wounds harvested POD 10, no significant difference vs control) was 5,212+213 μm and the “blood flow ratio (flow-ischemia/flow-non-ischemia)” value ([4]; 0.3 mg/kg, POD 10, P=0.018 vs control) was 0.495. For the same compound, the “oxygen tension ratio (O2-ischemia/O2-non-ischemia)” value ([4]; 0.3 mg/kg, POD 10, P=0.079 vs control) was 0.238, the “change in blood flow ratio from POD 3 to POD 10” value ([4]; 0.3 mg/kg, same rabbit, P=0.108 vs control) was 0.149 and the “change in oxygen tension ratio from POD 3 to POD 10” value ([4]; 0.3 mg/kg, same rabbit, P=0.322 vs control) was 0.082.
